According to patent publication US20240398808A1, “DIHYDROFOLATE FOR HYPOGLYCEMIC ACTIVITY” (COUNCIL OF SCIENTIFIC AND INDUSTRIAL RESEARCH an india …, priority 2023, published 2024):
Marks after values point to notes of the source that are not given here.

Tests used:
[1] = tested on: rat liver homogenate; test: In vitro glucose assay using rat liver homogenate; format: biochemical; conditions: 100 μM glucose, 25 μM or 50 μM folates, 37° C., 1 hour
Protocol: The glucose concentration was determined after incubation at 37° C. for 1 hour.
(A) Folates at a concentration of 25 μM. (B) Folates at 50 μM. Control represents glucose concentration without folate treatment which is considered to be 100%. The results are presented as mean±SD (n=3), and the significance of the values was analyzed by one-way ANOVA followed by Tukey's test (p<0.05). *p<0.05, **p<0.01, […], ***p<0.0001.

[2] = tested on: diabetic Wistar rats; test: Oral glucose tolerance test (OGTT) in diabetic Wistar rats; format: in vivo; conditions: for whole blood glucose values from baseline: 0-120 min
Protocol: Fasting blood sugar concentration was estimated.
Oral glucose tolerance test (OGTT). The test was performed by oral administration of glucose (2 g/kg body wt). Graph showing blood glucose concentration before (0 min) and 30, 60, 90, and 120 min after administration. Data are shown as the mean±SEM (n=6).

[3] = tested on: diabetic Wistar rats; test: Organ weight after long-term oral administration in diabetic Wistar rats; format: in vivo; parameters: unit not given here; conditions: mean±SD (n=6)
Protocol: The results are presented as mean±SD (n=6), and the significance of the values was analyzed by one-way ANOVA followed by Tukey's test (p<0.05). *p<0.05, **p<0.01, ***p<0.001, ****p<0.0001.

[4] = tested on: diabetic Wistar rats; test: Organ histology (islets of the pancreas) in diabetic Wistar rats; format: in vivo; conditions: long-term oral administration
[5] = 400 μg folate vs equimolar amounts, after 8 weeks of treatment; cited from earlier work

Compound	glucose concentration upon treatment [1]	whole blood glucose values from baseline ([2]; OGTT)	Organ weight, Adipose [3]	Organ weight, Cecum matter [3]	Organ weight, Heart [3]	Organ weight, Kidney [3]	Organ weight, Liver [3]	Organ weight, Lungs [3]	Organ weight, Spleen [3]	Organ weight, Testes [3]	histology of islets of the pancreas / beta cells [4]	serum folate concentrations compared to the folate group [5] [fold]	glucose tolerance ([2]; oral glucose 2 g/kg body wt)	Organ weight, Brain [3]	time at which decline in whole blood glucose leveled off ([2]; OGTT)
Nc1nc(=O)c2nc(CNc3ccc(C(=O)N[C@@H](CCC(=O)O)C(=O)O)cc3)cnc2[nH]1 [synthetic folate]	no effect	did not show much declaim	0.87 ± 0.60****	6.46 ± 1.49	0.68 ± 0.07	2.12 ± 0.46	7.35 ± 1.02	1.46 ± 0.38	0.66 ± 0.08	2.57 ± 0.95	Moderate atrophy of islets of the pancreas with apoptosis of beta cells	–	–	–	–
CN1c2c(nc(N)[nH]c2=O)NC[C@H]1CNc1ccc(C(=O)N[C@@H](CCC(=O)O)C(=O)O)cc1 [[6R,S]-5-methyltetrahydrofolate]	–	–	–	–	–	–	–	–	–	–	–	~3	–	–	–
Nc1nc(=O)c2c([nH]1)NCC(CNc1ccc(C(=O)N[C@@H](CCC(=O)O)C(=O)O)cc1)=N2 [dihydrofolate]	decreased	more gradual decline	5.43 ± 1.75*	2.72 ± 0.51	0.88 ± 0.07	1.74 ± 0.21	10.68 ± 1.46	2.09 ± 0.18	1.09 ± 0.10	2.88 ± 0.27	Severe hypertrophy of islets of the pancreas with hyperplasia of beta cells	–	greater effect	1.64 ± .09	–
CN1c2c(nc(N)[nH]c2=O)NCC1CNc1ccc(C(=O)N[C@@H](CCC(=O)O)C(=O)O)cc1 (some centres unmarked) [5-methyltetrahydrofolate]	decreased	gradual decline	2.77 ± 2.11**	4.33 ± 0.95	0.82 ± 0.23	2.12 ± 0.2	8.49 ± 2.52	1.93 ± 0.62	0.92 ± 0.35	2.31 ± 0.79	Moderate hypertrophy of islets of the pancreas and moderate hyperplasia of beta cells	–	–	1.46 ± 0.18	about 120 minutes
